Laboratory results taken from patent publication US20070020193A1, “Dronabinol compositions and methods for using same” (priority 2005, published 2007).
Entries after “also recorded” stand apart in the source; their conditions may differ.

What was measured:
[1] = Example 1 single rising dose inhaled delta-9-THC study: plasma pharmacokinetics
Protocol: A randomized, double blind, placebo controlled, three way crossover, single rising dose human clinical study in two sequential groups (Groups I and II) of nine young healthy male subjects (18-45 years of age and body mass index (BMI) of 20-26 kg/m^2) of a metered dose inhalation composition according to one embodiment the present invention was conducted. Each subject received two ascending single doses of inhaled delta-9-THC and one single dose of inhaled placebo according to a three-way crossover balanced incomplete block design. The administered composition is detailed in Table 1. Composition I provides 0.3 mg per actuation, while Composition II provides 1.2 mg per actuation.
Each sequential dose level or period was separated by a washout period of two weeks, during which an interim safety and pharmacokinetic analysis was performed. A third group (Group III) of nine elderly healthy male and female subjects (65-80 years old and BMI 18-30 kg/m^2) was added after completion of the sixth study period to participate in a single treatment period. […] Five dose levels were evaluated: 0.3 mg, 1.2 mg, and 2.4 mg in Group I, 3.6 mg, 7.2 mg, and 9.6 mg in Group II, and 3.6 mg in Group III. Subjects were confined to the study center from the day prior to dosing until the 48 hour blood sample. Subjects returned to the center for 72, 96 and 120 hour pharmacokinetic samples. Various pharmacokinetic and pharmacodynamic measurements and sampling were taken according to the Assessment Flow Charts in FIG. 1 and FIG. 2. Safety was measured by monitoring adverse events, physical examination, clinical laboratory and pulmonary function tests, vital signs, 12 lead ECG, and telemetry.
Safety, pharmacokinetic and pharmacodynamic variables were estimated. Plasma concentrations of delta-9-THC (THC), 11-hydroxy-tetrahydrocanabinol (11-OH-THC) and delta-9-tetrahydrocannbinol-carboxylic acid (THC-COOH) were determined for pharmacokinetic analysis.
Whole blood samples were collected according to the assessment flowchart in EDTA tubes through venepuncture or indwelling catheter. Samples were immediately placed on ice and subsequently centrifuged within 30 minutes at 1,500 g for 10 minutes. Plasma was transferred into a 5 ml screw cap polypropylene tube, stoppered and stored at below minus 20° C. until transfer to the analytical laboratory for analysis. […] The measurement ranges were 0.05-30 ng/ml for delta-9-THC, 0.04-30 ng/ml for 11-OH-THC, and 0.25-10 ng/ml for THC-COOH.
Number of subjects, mean, standard deviation, coefficient variable (%) and geometric mean were calculated for all pharmacokinetic parameters.
For Example 1: A mixed ANOVA model with group and dose fixed effect and subject within group by dose as random effect was performed on the logarithms of the dose normalized pharmacokinetic parameters AUC, AUC0-t and Cmax. The overall treatment effect was tested by conventional F-test with Satterthwaites correction. Dose proportionality was tested using Helmert Contrasts and Reverse Helmert Contrasts. The within and between subject coefficient of variances were calculated from the estimated covariance parameters. Per dose level geometric means with 90% confidence interval were calculated for the dose-normalized values from the least squared means analysis outcomes. The difference between young and elderly subjects was explored using a one-way ANOVA.

healthy subjects [2] = tested on: healthy subjects; parameters: species or system human; conditions: in vivo
healthy subjects [3] = assay: Example 2: heart rate (telemetry / vital signs); type: in vivo, human; conditions: for placebo-corrected mean heart rate: 1.2 mg; for Mean increase of heart rate above baseline: last day of dosing
Excerpt: For Examples 1 and 2: Heart rate was obtained from the blood pressure recordings or using telemetry.
Absolute values of heart rate and conjunctive congestion scores were used to calculate changes from baseline.
Changes from baseline in conjunctiva congestion and heart rate were compared for all time-points measured, and summarized using descriptive statistics. Subjective ratings were individually tabulated and sorted by treatment group, subject number, and time, and summarized using descriptive statistics. Separate tables were provided to summarize differences between males and females if applicable. Pharmacodynamic assessments were compared with delta-9 THC and 11-OH-THC blood concentrations and summarized using descriptive statistics.

healthy subjects [4] = assay: Example 2: subjective drug rating and ARCI-49; type: in vivo, human
Excerpt: The data for Group I and Group II were pooled and submitted to a mixed effects general linear model analysis. Two sets of analyses were done. The first was for the pre-drug conditions. The fixed effect of day and the fixed effect of condition were non-significant for all of the five scale scores, indicating similarity of pre-drug baseline score. A second analysis compared condition, the first dosing day, the last dosing day, the four visits including pre-drug, and the subjects in the analysis of variance.
The subject responded to each of three questions on a scale of 0 to 100 with 0 meaning no effect/not at all and 100 meaning maximum/very much:
The ARCI is a true/false questionnaire developed to specifically measure the subjective effects of drugs which have diverse pharmacological actions. The […] (PCAG), morphine-benzedrine, and lysergic acid diethylamide subgroup scales were used to assess sedation, euphoria, and dysphoria. Questions from the marijuana subscale were also included.

healthy subjects [5] = assay: Example 2: 12-lead ECG and telemetric cardiac monitoring; type: in vivo, human; conditions: for heart rate, mean value (ECG) / heart rate, mean increase above baseline / heart rate, mean increase above pre-dose value on Day 1: Day 1, 20 minutes after dosing; for time for heart rate to return to baseline after dosing: Day 1
Protocol: Adverse events were recorded based on original descriptions from subject responses to queries. Complete medical histories and physical examinations were conducted. Vital signs were monitored, ECGs were recorded along with pulmonary function tests and laboratory examinations.
Listings of values for each subject were presented with abnormal or out of range values for vital signs, laboratory assays, ECGs, pulmonary function tests, and physical examinations. Descriptive statistics (n, mean, standard deviation (SD), minimum, median, maximum) for all clinical laboratory safety parameters, ECGs, pulmonary function tests, and vital signs were provided. ECGs and physical examinations were to be summarized in shift tables to show changes from baseline between normal and abnormal findings.

[6] = after single dosing, both dose levels

SMILES: CCCCCc1cc(O)c2c(c1)OC(C)(C)[C@@H]1CCC(C)=C[C@@H]21 [delta-9-THC, delta-9-tetrahydrocannabinol]
- Cmax and AUC versus dose ([1]; 7.2 and 9.6 mg doses): less than proportional increase
- Cmax and AUC versus dose ([1]; Groups I and II, doses from 0.3-3.6 mg): dose-related increase
- Cmax ([1]; male, human, plasma, inhaled, 2.4 mg): 23.6 ng/mL
- Choice reaction time (healthy subjects [2]): Significant decrements
- Digit Vigilance (healthy subjects [2]): slight decrement; also recorded: more marked decrements; also recorded: marked decrement
- Digit Vigilance, primary analysis (healthy subjects [2]): failed to show significant dose-time interaction
- Immediate word recall (healthy subjects [2]): No significant differences
- Numeric Working Memory Speed (healthy subjects [2]): significant decrements
- Numeric Working memory sensitivity index (healthy subjects [2]): No significant differences
- Spatial Working Memory Sensitivity Index (healthy subjects [2]): No significant differences
- Spatial Working Memory Speed (healthy subjects [2]): No significant differences
- delay of effects on VAS (healthy subjects [2]): up to two hours
- delay of effects on cognitive functioning (healthy subjects [2]): up to one hour
- delayed word recall, analysis (healthy subjects [2]): significant main effect of dose
- picture recognition sensitivity index (healthy subjects [2]): did not show any significant differences
- picture recognition speed (healthy subjects [2]): No significant differences
- word recognition speed (healthy subjects [2]): did not show any significant differences
- word sensitivity index (word recognition) (healthy subjects [2]): No significant differences
- placebo-corrected mean heart rate (healthy subjects [3]; Day 1): limited and short-lasting increase
- placebo-corrected mean heart rate (healthy subjects [3]; Day 12): no increase
- duration of placebo-corrected heart rate increase post-dose (healthy subjects [3]; 3.6 mg, Day 1): at least 4 hours
- placebo-corrected mean heart rate, maximum increase (healthy subjects [3]; 3.6 mg, after 19 days of dosing, by 10 minutes post-dose): approximately 10 bpm
- Mean increase of heart rate above baseline (healthy subjects [3]; Group I (1.2 mg), at 0.5 hours after dosing): ≤ 12 bpm
- Mean increase of heart rate above baseline (healthy subjects [3]; Group II (3.6 mg), at 5 minutes after dosing): ≤ 18 bpm
- heart rate (summary) (healthy subjects [3]; after single dose inhaled administration): increased in a dose-dependent fashion
- duration of effect on heart rate (healthy subjects [3]; [6]): 2 to 4 h
- time of maximum effect on heart rate (healthy subjects [3]; [6]): 2 to 5 min
- 'feel the drug' and 'liking' scores (healthy subjects [4]; 1.2 mg, Day 1): slightly larger than those who received placebo
- 'disliking' scores (healthy subjects [4]; 1.2 mg, Day 12): approximately the same or slightly higher
- 'feel the drug' and 'liking' scores (healthy subjects [4]; 1.2 mg, Day 12): diminished
- ARCI Morphine Benzedrine Group (MBG) scale (healthy subjects [4]; 3.6 mg, 1 hour post-dose): some MBG effect
- 'feel the drug', 'liking' and 'disliking' scores versus placebo (healthy subjects [4]; 3.6 mg, Day 1): significantly larger
- subjective drug rating scores (healthy subjects [4]; 3.6 mg, Day 19): still much larger than the placebo scores
- ARCI Amphetamine Scale (AS) (healthy subjects [4]; Groups I and II pooled): no significant effects for condition
- ARCI Benzedrine Group scale, interaction terms (healthy subjects [4]; Groups I and II pooled): significant for the visit and the condition by visit interaction terms
- ARCI LSD scale (healthy subjects [4]; Groups I and II pooled): no significance for condition, day, visit, or any of the interaction terms
- ARCI PCAG scale, visit and condition times visit interaction (healthy subjects [4]; Groups I and II pooled, p less than 0.001): highly significant
- heart rate, mean value (ECG) (healthy subjects [5]; Group I (1.2 mg)): 67 bpm
- time for heart rate to return to baseline after dosing (healthy subjects [5]; Group I): ≤ 40 min
- heart rate, mean increase above baseline (healthy subjects [5]; Group I): 4 bpm
- heart rate, mean increase above pre-dose value on Day 1 (healthy subjects [5]; Group I): 13 bpm
- heart rate, mean value (ECG) (healthy subjects [5]; Group II (3.6 mg)): 81 bpm
- time for heart rate to return to baseline after dosing (healthy subjects [5]; Group II): ≤ 240 min
- heart rate, mean increase above baseline (healthy subjects [5]; Group II): 14 bpm
- heart rate, mean increase above pre-dose value on Day 1 (healthy subjects [5]; Group II): 21 bpm
- time of return of QTc towards baseline after dosing (healthy subjects [5]; Group II, first dose): ≤ 1 h
- Individual QTc values (healthy subjects [5]; each assessment time point): less than 450 msec
- QTc individual values (healthy subjects [5]; each assessment time point): < 422 ms
- QTc mean values (healthy subjects [5]; each assessment time point): < 395 ms
- QTc-intervals using Fridericia's correction (healthy subjects [5]; in vivo): no apparent effect
- telemetric cardiac monitoring (healthy subjects [5]; in vivo): no clinically significant abnormalities
- ECG parameters (healthy subjects [5]; single and multiple inhalational dosing): no clinically significant abnormalities or trends
